Assay results reported in PubChem BioAssay (NCI).
Several values for one entry are separate records, joined by “and”; a condition that tells them apart may be missing. Identical values can stand only once.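 Results reflect a 48-hour exposure of cells in 96-well plates to compound at five concentrations. Abbreviation: GI50, concentration required for 50% inhibition of growth. The concentration for full growth arrest is given as TGI.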

Tests used:
Test in all cases: NCI-60 cell line screen, 48 h
CAKI-1 renal = tested on: CAKI-1 renal
COLO 205 colon = tested on: COLO 205 colon
HCC-2998 colon = tested on: HCC-2998 colon
M14 melanoma = tested on: M14 melanoma
NCI-H226 lung = tested on: NCI-H226 lung
OVCAR-5 ovarian = tested on: OVCAR-5 ovarian
RPMI-8226 leukemia = tested on: RPMI-8226 leukemia
SR leukemia = tested on: SR leukemia
T-47D breast = tested on: T-47D breast
U251 CNS = tested on: U251 CNS

| Compound | GI50 (CAKI-1 renal) [nM] | TGI (CAKI-1 renal) | GI50 (COLO 205 colon) [nM] | TGI (COLO 205 colon) | GI50 (HCC-2998 colon) [nM] | TGI (HCC-2998 colon) | GI50 (M14 melanoma) [nM] | TGI (M14 melanoma) | GI50 (NCI-H226 lung) [nM] | TGI (NCI-H226 lung) | GI50 (OVCAR-5 ovarian) [nM] | TGI (OVCAR-5 ovarian) [nM] | GI50 (RPMI-8226 leukemia) [nM] | TGI (RPMI-8226 leukemia) [nM] | GI50 (SR leukemia) [nM] | TGI (SR leukemia) [nM] | GI50 (T-47D breast) [nM] | TGI (T-47D breast) [nM] | GI50 (U251 CNS) [nM] | TGI (U251 CNS) |
| --- | --- | --- | --- | --- | --- | --- | --- | --- | --- | --- | --- | --- | --- | --- | --- | --- | --- | --- | --- | --- |
| O=S(=O)(NCCCNc1cc(-c2cn(-c3ccccc3)nc2-c2cccc(O)c2)ccn1)c1ccc(Cl)cc1 | 2300 | 12000 nM | 1570 | 3160 nM | 1820 | 3460 nM | 1600 | 3200 nM | 1770 | 5130 nM | 2040 | 5640 | 1490 | 4680 | 1580 | 5160 | 1480 | 5210 | 1350 | 3470 nM |
| CCCCCCCCCC(CCCC(O)CC(=O)O)OC1OC(COC2OC(C)C(O)C(O)C2O)C(O)C(O)C1OC1OC(CO)C(O)C(O)C1OC1OC(C)C(O)C(O)C1O (configuration not stated) | > 40000 | > 40000 nM | > 40000 | > 40000 nM | > 40000 | > 40000 nM | > 40000 | > 40000 nM | > 40000 | > 40000 nM | > 40000 | > 40000 | > 40000 | > 40000 | > 40000 | > 40000 | > 40000 | > 40000 | > 40000 | > 40000 nM |
| COc1ccc(-c2coc3cc(OC)cc(O)c3c2=O)cc1 | – | > 100000 nM | – | > 100000 nM | – | > 100000 nM | – | > 100000 nM | – | > 100000 nM | – | > 100000 | – | > 100000 | – | > 100000 | – | > 100000 | – | > 100000 nM |
| CC[C@@]1(O)C(=O)OCc2c1cc1n(c2=O)Cc2c-1nc1ccccc1c2/C=N/OC(C)(C)C | < 10 | 149 nM | 48.3 | 2050 nM | 183 | 14100 nM | < 10 | 226 nM | < 10 | 35.5 nM | 113 | 5470 | 11.6 | 551 | < 10 | 108 | < 10 | 15100 | < 10 | 812 nM |
| CCCN1CCN(c2ccc3nc(-c4ccc5nc(-c6ccc(OCC)c(OCC)c6)[nH]c5c4)[nH]c3c2)CC1 | 1020 | 3280 nM | 164 | 1400 nM | 533 | 1160 nM | 195 | 1390 nM | 495 | 2060 nM | 1670 | 4320 | 387 | 1890 | 263 | 896 | 428 | 5660 | 398 | 1550 nM |
| S=C(N/N=C(/c1ccccc1)c1ccccn1)Nc1cccc(Cl)c1 | 832 | 8780 nM and 6330 nM | 16.8 | 2200 nM and 21600 nM | 2000 | 5040 nM and 5920 nM | 15.4 | 2240 nM and 1890 nM | 219 | 1640 nM and 4200 nM | 50 | 4470 | 6.01 | – | 4.13 | – | 560 | – | 51.3 | 2910 nM and 4580 nM |
